Assay results from patent US20040063662A1, “Selenophene anti-tumor agents” (priority 1996, published 2004).

Columns and labels:
DU-145 = assay: NCI human tumor cell panel: DU-145 (Prostate Cancer); type: cell-based; conditions: DU-145, Prostate Cancer
SF-295 = assay: NCI human tumor cell panel: SF-295 (CNS Cancer); type: cell-based; conditions: SF-295, CNS Cancer
SW-620 = assay: NCI human tumor cell panel: SW-620 (Colon Cancer); type: cell-based; conditions: SW-620, Colon Cancer
LOX IMVI = assay: NCI human tumor cell panel: LOX IMVI (Melanoma); type: cell-based; conditions: Melanoma
OVCAR-3 = assay: NCI human tumor cell panel: OVCAR-3 (Ovarian Cancer); type: cell-based; conditions: OVCAR-3, Ovarian Cancer
MALME-3M = assay: NCI human tumor cell panel: MALME-3M (Melanoma); type: cell-based; conditions: MALME-3M, Melanoma
UO-31 = assay: NCI human tumor cell panel: UO-31 (Renal Cancer); type: cell-based; conditions: UO-31, Renal Cancer
OVCAR-4 = assay: NCI human tumor cell panel: OVCAR-4 (Ovarian Cancer); type: cell-based; conditions: OVCAR-4, Ovarian Cancer
HT29 = assay: NCI human tumor cell panel: HT29 (Colon Cancer); type: cell-based; conditions: HT-29, HT29, Colon Cancer
NCI-H522 = assay: NCI human tumor cell panel: NCI-H522 (Non-Small Cell Lung Cancer)
PC-3 = assay: NCI human tumor cell panel: PC-3 (Prostate Cancer); type: cell-based; conditions: PC-3, Prostate Cancer
OVCAR-8 = assay: NCI human tumor cell panel: OVCAR-8 (Ovarian Cancer); type: cell-based; conditions: OVCAR-8, Ovarian Cancer
EKVX = assay: NCI human tumor cell panel: EKVX (Non-Small Cell Lung Cancer); type: cell-based; conditions: Non-Small Cell Lung Cancer
HOP-92 = assay: NCI human tumor cell panel: HOP-92 (Non-Small Cell Lung Cancer)
ACHN = assay: NCI human tumor cell panel: ACHN (Renal Cancer); type: cell-based; conditions: Renal Cancer
U251 = assay: NCI human tumor cell panel: U251 (CNS Cancer); type: cell-based; conditions: U-251, U251, CNS Cancer
NCI-H23 = assay: NCI human tumor cell panel: NCI-H23 (Non-Small Cell Lung Cancer); type: cell-based; conditions: NCI-H23, Non-Small Cell Lung Cancer
SNB-19 = assay: NCI human tumor cell panel: SNB-19 (CNS Cancer); type: cell-based; conditions: SNB-19, CNS Cancer
SN12C = assay: NCI human tumor cell panel: SN12C (Renal Cancer); type: cell-based; conditions: Renal Cancer
HCT-116 = assay: NCI human tumor cell panel: HCT-116 (Colon Cancer); type: cell-based; conditions: HCT-116, Colon Cancer
CCRF-CEM = assay: NCI human tumor cell panel: CCRF-CEM (Leukemia); type: cell-based; conditions: Leukemia
786-0 = assay: NCI human tumor cell panel: 786-0 (Renal Cancer); type: cell-based; conditions: 786-0, Renal Cancer
UACC-62 = assay: NCI human tumor cell panel: UACC-62 (Melanoma); type: cell-based; conditions: UACC-62, Melanoma
MDA-N = assay: NCI human tumor cell panel: MDA-N (Breast Cancer); type: cell-based; conditions: Breast Cancer
MOLT-4 = assay: NCI human tumor cell panel: MOLT-4 (Leukemia); type: cell-based; conditions: MOLT-4, Leukemia
HOP-62 = assay: NCI human tumor cell panel: HOP-62 (Non-Small Cell Lung Cancer); type: cell-based; conditions: HOP-62, Non-Small Cell Lung Cancer
HCT-15 = assay: NCI human tumor cell panel: HCT-15 (Colon Cancer); type: cell-based; conditions: HCT-15, Colon Cancer, read-out: Log10 GI50 (converted)
HS 578T = assay: NCI human tumor cell panel: HS 578T (Breast Cancer); type: cell-based; conditions: Breast Cancer
RPMI-8226 = assay: NCI human tumor cell panel: RPMI-8226 (Leukemia); type: cell-based; conditions: RPMI-8226, Leukemia
A549/ATCC = assay: NCI human tumor cell panel: A549/ATCC (Non-Small Cell Lung Cancer); type: cell-based; conditions: Non-Small Cell Lung Cancer
SF-539 = assay: NCI human tumor cell panel: SF-539 (CNS Cancer); type: cell-based; conditions: SF-539, CNS Cancer
BT-549 = assay: NCI human tumor cell panel: BT-549 (Breast Cancer); type: cell-based; conditions: BT-549, Breast Cancer
[1] = read-out: Log10 GI50 (converted)
[2] = read-out: Log10 TGI (converted)

OCc1ccc(-c2ccc(-c3cccs3)[se]2)s1 [NSC 675344]
GI50 (DU-145; [1]): 36.3 µM
IC (TGI) (DU-145; [2]): > 100 µM
GI50 (SF-295; [1]): 26.9 µM
IC (TGI) (SF-295; [2]): > 100 µM
GI50 (SW-620; [1]): > 100 µM
IC (TGI) (SW-620; [2]): > 100 µM
GI50 (LOX IMVI; [1]): 34.7 µM
IC (TGI) (LOX IMVI; [2]): > 100 µM
GI50 (OVCAR-3; [1]): < 10 nM
IC (TGI) (OVCAR-3; [2]): > 100 µM
GI50 (MALME-3M; [1]): > 100 µM
IC (TGI) (MALME-3M; [2]): > 100 µM
GI50 (UO-31; [1]): > 100 µM
IC (TGI) (UO-31; [2]): > 100 µM
GI50 (OVCAR-4; [1]): 41.7 nM
IC (TGI) (OVCAR-4; [2]): > 100 µM
GI50 (HT29; [1]): > 100 µM
IC (TGI) (HT29; [2]): > 100 µM
GI50 (NCI-H522; NCI-H522, read-out: Log10 GI50 (converted)): > 100 µM
IC (TGI) (NCI-H522; NCI-H522, read-out: Log10 TGI): > 100 µM
GI50 (PC-3; [1]): > 100 µM
IC (TGI) (PC-3; [2]): > 100 µM
GI50 (OVCAR-8; [1]): > 100 µM
IC (TGI) (OVCAR-8; [2]): > 100 µM
GI50 (EKVX; [1]): > 100 µM
IC (TGI) (EKVX; [2]): > 100 µM
GI50 (HOP-92; HOP-92, read-out: Log10 GI50 (converted)): 27.5 µM
IC (TGI) (HOP-92; HOP-92, read-out: Log10 TGI): 89.1 µM
GI50 (ACHN; [1]): 12.9 µM
IC (TGI) (ACHN; [2]): 83.2 µM
GI50 (U251; [1]): 25.1 nM
IC (TGI) (U251; [2]): 26.3 µM
GI50 (NCI-H23; [1]): 20.4 µM
IC (TGI) (NCI-H23; [2]): > 100 µM
GI50 (SNB-19; [1]): 29.5 µM
IC (TGI) (SNB-19; [2]): > 100 µM
GI50 (SN12C; [1]): > 100 µM
IC (TGI) (SN12C; [2]): > 100 µM
GI50 (HCT-116; [1]): < 10 nM
IC (TGI) (HCT-116; [2]): 0.0417 µM
GI50 (CCRF-CEM; [1]): > 100 µM
IC (TGI) (CCRF-CEM; [2]): > 100 µM
GI50 (786-0; [1]): 12.3 µM
IC (TGI) (786-0; [2]): 67.6 µM
GI50 (UACC-62; [1]): < 10 nM
IC (TGI) (UACC-62; [2]): 0.0141 µM
GI50 (MDA-N; [1]): > 100 µM
IC (TGI) (MDA-N; [2]): > 100 µM
GI50 (MOLT-4; [1]): > 100 µM
IC (TGI) (MOLT-4; [2]): > 100 µM
GI50 (HOP-62; [1]): 34.7 µM
IC (TGI) (HOP-62; [2]): > 100 µM
GI50 (HCT-15): 25.7 nM
GI50 (HS 578T; [1]): 53.7 µM
IC (TGI) (HS 578T; [2]): > 100 µM
GI50 (RPMI-8226; [1]): > 100 µM
IC (TGI) (RPMI-8226; read-out: Log10 TGI): > 100 µM
GI50 (A549/ATCC; [1]): 45.7 µM
IC (TGI) (A549/ATCC; [2]): > 100 µM
GI50 (SF-539; [1]): > 100 µM
IC (TGI) (SF-539; [2]): > 100 µM
GI50 (BT-549; [1]): 42.7 µM
IC (TGI) (BT-549; [2]): > 100 µM
